Where “and” joins values, the source holds several entries; their conditions need not be identical. Identical values can stand only once. Toxic doses and inconclusive results are not listed.

This experiment deals with L1210 leukemia ip in BDF1 mice, survival T/C. The experiment in a line: NCI In Vivo Anticancer Drug Screen. Data for tumor model L1210 Leukemia (intraperitoneal) in B6D2F1 (BDF1) mice. To be noted: endpoint: mean survival time, higher = longer survival. An outline of the steps:
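Survival endpoint. Drug-treated group vs vehicle group, expressed as T divided by C. Tumor passaged by transplantation.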

Setting [1] is: dose: 100.0 mg/kg/injection, schedule: Q04DX002 (ip), vehicle: Klucel (hydroxypropylcellulose) (HPC).
The mark [2] stands for this setting: dose: 200.0 mg/kg/injection, schedule: Q04DX002 (ip), vehicle: Klucel (hydroxypropylcellulose) (HPC).
Where [3] appears, read: dose: 400.0 mg/kg/injection, schedule: Q04DX002 (ip), vehicle: Klucel (hydroxypropylcellulose) (HPC).
The mark [4] stands for this setting: dose: 100.0 mg/kg/injection, schedule: Q01DX009 (ip), vehicle: Klucel (hydroxypropylcellulose) (HPC).
Where [5] appears, read: dose: 100.0 mg/kg/injection, schedule: Q04DX003 (ip), vehicle: Klucel (hydroxypropylcellulose) (HPC).
Where [6] appears, read: dose: 200.0 mg/kg/injection, schedule: Q01DX009 (ip), vehicle: Klucel (hydroxypropylcellulose) (HPC).
Where [7] appears, read: dose: 200.0 mg/kg/injection, schedule: Q04DX003 (ip), vehicle: Klucel (hydroxypropylcellulose) (HPC).
Where [8] appears, read: dose: 400.0 mg/kg/injection, schedule: Q01DX009 (ip), vehicle: Klucel (hydroxypropylcellulose) (HPC).
[9] abbreviates: dose: 400.0 mg/kg/injection, schedule: Q04DX003 (ip), vehicle: Klucel (hydroxypropylcellulose) (HPC).
The mark [10] stands for this setting: dose: 100.0 mg/kg/injection, schedule: Q01DX001 (ip), vehicle: saline.
Setting [11] is: dose: 200.0 mg/kg/injection, schedule: Q01DX001 (ip), vehicle: saline.
Where [12] appears, read: dose: 400.0 mg/kg/injection, schedule: Q01DX001 (ip), vehicle: saline.
The mark [13] stands for this setting: dose: 100.0 mg/kg/injection, schedule: Q01DX009 (ip), vehicle: saline.
[14] abbreviates: dose: 100.0 mg/kg/injection, schedule: Q04DX003 (ip), vehicle: saline with Tween-80.
[15] abbreviates: dose: 200.0 mg/kg/injection, schedule: Q04DX003 (ip), vehicle: saline with Tween-80.

For `CCN(CC)CCn1cnc2cc([N+](=O)[O-])ccc21`, the T/C was 101 % of control (dose: 20.0 mg/kg/injection, schedule: Q01DX001 (ip), vehicle: Klucel (hydroxypropylcellulose) (HPC)) and 98 % of control (dose: 40.0 mg/kg/injection, schedule: Q01DX001 (ip), vehicle: Klucel (hydroxypropylcellulose) (HPC)).
As to `Cc1onc(-c2ccccc2Cl)c1-c1nc2ccccc2c(=O)o1`, the T/C was 93 % of control under setting [1], 93 % of control under setting [2] and 96 % of control under setting [3].
With `O=C1C=C(C(=O)O)C(c2ccccc2)CC1` (centres undefined), the T/C is 88 % of control under setting [4]; 100 % of control under setting [5]; 95 % of control under setting [6]; 95 % of control under setting [7]; 98 % of control under setting [8]; 98 % of control under setting [9].
In the case of `C=CCOCC(C)OC(=O)C(C)C` (centres undefined), the T/C is 107 % of control under setting [10], 94 % of control under setting [11] and 90 % of control under setting [12].
`CNCCOC`: where the note is “dose: 100.0 mg/kg/injection, schedule: Q04DX002 (ip), vehicle: saline”, the T/C is 98 % of control.
On to `COc1ccc([N+](=O)[O-])cc1NC(=O)c1ccc2c(c1)C(=O)OC2=O`, for which the T/C by setting is: (dose: 6.25 mg/kg/injection, schedule: Q01DX009 (ip), vehicle: gum acacia) 93 % of control; (dose: 12.5 mg/kg/injection, schedule: Q01DX009 (ip), vehicle: gum acacia) 88 % of control; (dose: 25.0 mg/kg/injection, schedule: Q01DX009 (ip), vehicle: gum acacia) 87 % of control; (dose: 50.0 mg/kg/injection, schedule: Q01DX009 (ip), vehicle: gum acacia) 86 % of control; (dose: 200.0 mg/kg/injection, schedule: Q01DX009 (ip), vehicle: gum acacia) 88 % of control.
For `CNC(=O)Nc1ccc(OC)cc1Cl`, the T/C is 98 % of control and 87 % of control under setting [4]; 98 % of control under setting [6]; 95 % of control and 90 % of control under setting [8].
With `Cc1ccc(C2C(C(=O)O)C2c2ccccc2)cc1` (centres undefined), the T/C by setting is: under setting [1], 106 % of control; under setting [2], 95 % of control; under setting [3], 92 % of control.
In the case of `COc1ccccc1/C=C(\S)C(=O)O`, the T/C by setting is: under setting [10], 103 % of control; under setting [11], 97 % of control; under setting [12], 97 % of control.
In the case of `COC(=O)C(Cc1ccccc1)NC(=O)C(C)NC(=O)OCc1ccccc1` (centres undefined), the T/C by setting is: under setting [1], 105 % of control; (dose: 130.0 mg/kg/injection, schedule: Q04DX002 (ip), vehicle: Klucel (hydroxypropylcellulose) (HPC)) 100 % of control and 86 % of control; under setting [2], 100 % of control; (dose: 300.0 mg/kg/injection, schedule: Q04DX002 (ip), vehicle: Klucel (hydroxypropylcellulose) (HPC)) 100 % of control and 103 % of control; under setting [3], 108 % of control.
With `Cc1ccccc1SCCC(=O)O`, the T/C runs as follows: under setting [10], 100 % of control; under setting [4], 92 % of control; under setting [11], 87 % of control; under setting [6], 96 % of control; under setting [12], 87 % of control; under setting [8], 94 % of control.
For the molecule `C(=N\Nc1nc2ccccc2s1)/c1ccc2ccccc2n1`, the T/C runs as follows: under setting [4], 96 % of control; under setting [6], 96 % of control.
Consider `Oc1ccc(Cl)cc1/C=N/NC(=S)Nc1cccc2cccnc12`, for which the T/C is 111 % of control under setting [10], 100 % of control under setting [11] and 91 % of control under setting [12].
Consider `COc1cc(OC)cc(C(=O)N2CC2)c1`, for which the T/C is 100 % of control (dose: 25.0 mg/kg/injection, schedule: Q01DX009 (ip), vehicle: water) and 88 % of control (dose: 50.0 mg/kg/injection, schedule: Q01DX009 (ip), vehicle: water).
With `Cc1ccc(Nc2cc(=O)[nH]c(N)n2)cc1`, the T/C (dose: 100.0 mg/kg/injection, schedule: Q01DX Z (ip), vehicle: methylcellulose (MC)) is 94 % of control.
For the molecule `CNc1ncnc2c1ncn2C1CC(CO)C(O)C1O` (centres undefined), the T/C under setting [13] is 98 % of control.
In the case of `CC(C)(C)CC(C)(C)c1ccc(OCCOc2ccc(NS(=O)(=O)c3ccc(N)c([N+](=O)[O-])c3)cc2)cc1`, the T/C runs as follows: under setting [14], 94 % of control; under setting [15], 92 % of control.
`CCN(CC)CC(=O)NCC(CC)(CCN1CCCCC1)c1cccc2ccccc12` (centres undefined): the T/C runs as follows: (dose: 50.0 mg/kg/injection, schedule: Q04DX003 (ip), vehicle: saline) 92 % of control; under setting [13], 114 % of control; (dose: 100.0 mg/kg/injection, schedule: Q04DX003 (ip), vehicle: saline) 102 % of control; (dose: 200.0 mg/kg/injection, schedule: Q01DX009 (ip), vehicle: saline) 102 % of control; (dose: 200.0 mg/kg/injection, schedule: Q04DX003 (ip), vehicle: saline) 97 % of control.
For the molecule `CCOC(=O)C1CCC(NC(=O)N(CCCl)N=O)CC1` (centres undefined), the T/C was 109 % of control (dose: 3.0 mg/kg/injection, schedule: Q01DX001 (ip), vehicle: other); 189 % of control (dose: 12.0 mg/kg/injection, schedule: Q01DX001 (ip), vehicle: other); 281 % of control (dose: 16.0 mg/kg/injection, schedule: Q01DX001 (ip), vehicle: other); 298 % of control (dose: 20.0 mg/kg/injection, schedule: Q01DX001 (ip), vehicle: other); 315 % of control (dose: 21.0 mg/kg/injection, schedule: Q01DX001 (ip), vehicle: other); 267 % of control (dose: 24.0 mg/kg/injection, schedule: Q01DX001 (ip), vehicle: other). In addition, the T/C by setting is: (dose: 30.0 mg/kg/injection, schedule: Q01DX001 (ip), vehicle: other) 283 % of control; (dose: 31.0 mg/kg/injection, schedule: Q01DX001 (ip), vehicle: other) 317 % of control and 337 % of control; (dose: 44.0 mg/kg/injection, schedule: Q01DX001 (ip), vehicle: other) 270 % of control; (dose: 47.0 mg/kg/injection, schedule: Q01DX001 (ip), vehicle: other) 252 % of control; (dose: 62.0 mg/kg/injection, schedule: Q01DX001 (ip), vehicle: other) 259 % of control; (dose: 70.0 mg/kg/injection, schedule: Q01DX001 (ip), vehicle: other) 159 % of control.
Turning to `O=S(=O)(c1ccccc1)C(Br)c1ccccc1` (centres undefined), the T/C is 101 % of control under setting [1], 105 % of control under setting [2] and 97 % of control under setting [3].
Take `O=C1C=C(Nc2ccccc2)C(=O)C=C1Nc1ccccc1`: the T/C is, setting by setting: under setting [14], 86 % of control; under setting [15], 86 % of control; (dose: 400.0 mg/kg/injection, schedule: Q04DX003 (ip), vehicle: saline with Tween-80) 86 % of control.
`CN(C)c1ccc2c(c1)C(Br)c1ccccc1-2` (centres undefined): the T/C by setting is: under setting [4], 106 % of control; under setting [5], 94 % of control; under setting [6], 107 % of control; under setting [7], 96 % of control; under setting [9], 97 % of control.
For `COC(=O)c1cc(C2OCC3OC(C)(C)OC32)[nH]n1` (centres undefined), the T/C reads like this: (dose: 100.0 mg/kg/injection, schedule: Q01DX005 (ip), vehicle: saline) 96 % of control; (dose: 200.0 mg/kg/injection, schedule: Q01DX005 (ip), vehicle: saline) 100 % of control.
For the molecule `C/C(=C/CC1CCC2C3=CCC4CC(O)CCC4(C)C3CCC12C)C(C)C(C)C` (centres undefined), the T/C is, setting by setting: (dose: 100.0 mg/kg/injection, schedule: Q01DX001 (ip), vehicle: Klucel (hydroxypropylcellulose) (HPC)) 102 % of control; (dose: 200.0 mg/kg/injection, schedule: Q01DX001 (ip), vehicle: Klucel (hydroxypropylcellulose) (HPC)) 98 % of control; (dose: 400.0 mg/kg/injection, schedule: Q01DX001 (ip), vehicle: Klucel (hydroxypropylcellulose) (HPC)) 88 % of control.
As to `CC(CC(=O)O)Nc1ccc(Cl)c(Cl)c1` (centres undefined), the T/C is 100 % of control (dose: 25.0 mg/kg/injection, schedule: Q01DX009 (ip), vehicle: saline with Tween-80); 102 % of control (dose: 50.0 mg/kg/injection, schedule: Q01DX009 (ip), vehicle: saline with Tween-80); 94 % of control (dose: 100.0 mg/kg/injection, schedule: Q01DX009 (ip), vehicle: saline with Tween-80); 107 % of control under setting [14]; 96 % of control under setting [15].

For the origin of these results see PubChem BioAssay AID248 (DTP/NCI, 2004).
